Source: patent US10501481B2, “Heterocyclic compounds and their use in preventing or treating bacterial infections” (priority 2015, dated 2019)

What was measured:
OXA-1 = target: T1, OXA-1 (Escherichia coli, UniProt P13661); experiment: β-lactamase inhibitory activity, nitrocefin hydrolysis; format: biochemical
T1 construct: made in house; host or cells: E. coli
Experimental: (§1) Enzyme activity was monitored by spectrophotometric measurement of nitrocefin (NCF-TOKU-E, N005) hydrolysis at 485 nm, at room temperature and in assay buffer A: 100 mM Phosphate pH7, 2% glycerol and 0.1 mg/mL Bovine serum albumin (Sigma, B4287). […] To a transparent polystyrene plate (Corning, 3628) were added in each well 5 μL DMSO or inhibitor dilutions in DMSO and 80 μL enzyme in buffer A. Plates were immediately read at 485 nm in a microplate spectrophotometer (BioTek, PowerWave HT) to enable background subtraction. After 30 min of pre-incubation at room temperature, 15 μL of NCF (200 μM final) were finally added in each well. Final enzyme concentrations were 0.1 nM (TEM-1), 0.075 nM (SHV-1), 0.4 nM (CTX-M-15), 1 nM (KPC-2), 0.2 nM (P99 AmpC), 0.2 nM (CMY-37), 0.4 nM (AmpC P. aeruginosa), 0.2 nM (OXA-1), 1.2 nM (OXA-11), 0.4 nM (OXA-15) and 0.3 nM (OXA-48). After 20 min incubation at room temperature, plates were once again read at 485 nm. Enzyme activity was obtained by subtracting the final signal by the background, and was converted to enzyme inhibition using non inhibited wells. IC50 curves were fitted to a classical Langmuir equilibrium model with Hill slope using XLFIT (IDBS).

E. cloacae P99 (AmpC) = experiment: MIC broth microdilution, alone and synergy with ceftazidime; conditions: for MIC: Enterobacter cloacae, read-out: MIC compounds of the invention alone; for MIC of CAZ in combination with compound at 4 μg/mL: strain P99, compound fixed at 4 μg/mL
[1] = system: K. pneumoniae UFR77 (CMY-2); experiment: as above; conditions: for MIC: Klebsiella pneumoniae, read-out: MIC compounds of the invention alone; for MIC of CAZ in combination with compound at 4 μg/mL: strain UFR77, compound fixed at 4 μg/mL
P99 AmpC = target: T2, P99 AmpC (Enterobacter cloacae, UniProt P05364); experiment: β-lactamase inhibitory activity, nitrocefin hydrolysis; format: biochemical; conditions: class (C); 30 min pre-incubation; nitrocefin 200 μM
T2 construct: made in house; host or cells: E. coli
T2 sequence (P05364 21-381): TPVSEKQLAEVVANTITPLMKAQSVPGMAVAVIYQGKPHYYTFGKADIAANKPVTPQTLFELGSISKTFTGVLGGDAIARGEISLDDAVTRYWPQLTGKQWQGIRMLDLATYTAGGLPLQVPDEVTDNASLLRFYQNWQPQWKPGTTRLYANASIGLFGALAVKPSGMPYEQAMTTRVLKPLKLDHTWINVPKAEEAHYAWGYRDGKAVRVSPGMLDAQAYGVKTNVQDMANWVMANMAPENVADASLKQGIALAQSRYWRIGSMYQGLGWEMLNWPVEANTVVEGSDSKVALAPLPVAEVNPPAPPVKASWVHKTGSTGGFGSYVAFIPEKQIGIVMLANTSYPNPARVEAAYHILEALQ
Experimental: as §1

[2] = system: K. pneumoniae UFR68 (TEM-1, SHV-11, CTX-M-15, KPC-3); experiment: MIC broth microdilution, alone and synergy with ceftazidime; conditions: for MIC of CAZ in combination with compound at 4 μg/mL: strain UFR68, compound fixed at 4 μg/mL; for MIC: Klebsiella pneumoniae, read-out: MIC compounds of the invention alone
[3] = system: E. coli UFR32 (TEM-1, VEB-1, OXA-10); experiment: as above; conditions: for MIC of CAZ in combination with compound at 4 μg/mL: strain UFR32, compound fixed at 4 μg/mL
KPC-2 = target: T3, KPC-2 (Klebsiella pneumoniae, UniProt Q9F663); experiment: β-lactamase inhibitory activity, nitrocefin hydrolysis; format: biochemical
T3 construct: made in house; host or cells: E. coli
T3 sequence (Q9F663 25-293 limits assumed): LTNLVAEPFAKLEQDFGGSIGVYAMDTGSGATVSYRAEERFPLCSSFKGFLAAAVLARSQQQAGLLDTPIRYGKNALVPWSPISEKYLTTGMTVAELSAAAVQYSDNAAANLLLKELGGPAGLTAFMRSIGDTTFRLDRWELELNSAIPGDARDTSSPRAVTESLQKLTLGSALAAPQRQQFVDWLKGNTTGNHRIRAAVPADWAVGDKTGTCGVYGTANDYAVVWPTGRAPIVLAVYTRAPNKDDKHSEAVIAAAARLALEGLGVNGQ
Experimental: as §1

E. coli RGN238 (OXA-1) = experiment: MIC broth microdilution, alone and synergy with ceftazidime; conditions: for MIC: Escherichia coli, read-out: MIC compounds of the invention alone; for MIC of CAZ in combination with compound at 4 μg/mL: strain RGN238, compound fixed at 4 μg/mL
[4] = system: P. aeruginosa CIP107051 (TEM-24); experiment: as above; conditions: for MIC: Pseudomonas aeruginosa, CIP107051, read-out: MIC compounds of the invention alone; for MIC of CAZ in combination with compound at 4 μg/mL: strain CIP107051, compound fixed at 4 μg/mL
AmpC P. aeruginosa = AmpC P. aeruginosa (Pseudomonas aeruginosa, UniProt P24735); experiment: biochemical
Chain of AmpC P. aeruginosa (P24735 27-397): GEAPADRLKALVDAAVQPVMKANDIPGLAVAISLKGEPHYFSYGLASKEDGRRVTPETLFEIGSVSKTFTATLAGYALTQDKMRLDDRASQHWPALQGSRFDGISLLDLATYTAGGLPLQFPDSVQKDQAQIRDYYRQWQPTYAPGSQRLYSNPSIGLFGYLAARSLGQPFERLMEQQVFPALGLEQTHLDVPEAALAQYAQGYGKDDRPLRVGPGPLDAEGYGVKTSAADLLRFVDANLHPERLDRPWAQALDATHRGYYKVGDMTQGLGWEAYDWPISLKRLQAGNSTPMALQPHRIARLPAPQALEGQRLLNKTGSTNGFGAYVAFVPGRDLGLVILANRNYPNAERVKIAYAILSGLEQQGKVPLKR
Experimental: Enzyme activity was monitored by spectrophotometric measurement of nitrocefin (NCF-TOKU-E, N005) hydrolysis at 485 nm, at room temperature and in assay buffer A: 100 mM Phosphate pH7, 2% glycerol and 0.1 mg/mL Bovine serum albumin (Sigma, B4287). Enzymes were cloned in E. coli expression vector, expressed and purified in house using classical procedures. To a transparent polystyrene plate (Corning, 3628) were added in each well 5 μL DMSO or inhibitor dilutions in DMSO and 80 μL enzyme in buffer A. Plates were immediately read at 485 nm in a microplate spectrophotometer (BioTek, PowerWave HT) to enable background subtraction. After 30 min of pre-incubation at room temperature, 15 μL of NCF (200 μM final) were finally added in each well. Final enzyme concentrations were 0.1 nM (TEM-1), 0.075 nM (SHV-1), 0.4 nM (CTX-M-15), 1 nM (KPC-2), 0.2 nM (P99 AmpC), 0.2 nM (CMY-37), 0.4 nM (AmpC P. aeruginosa), 0.2 nM (OXA-1), 1.2 nM (OXA-11), 0.4 nM (OXA-15) and 0.3 nM (OXA-48). After 20 min incubation at room temperature, plates were once again read at 485 nm. Enzyme activity was obtained by subtracting the final signal by the background, and was converted to enzyme inhibition using non inhibited wells. IC50 curves were fitted to a classical Langmuir equilibrium model with Hill slope using XLFIT (IDBS).

[5] = system: E. coli UFR61O (TEM-1, KPC-2); experiment: MIC broth microdilution, alone and synergy with ceftazidime; conditions: for MIC: Escherichia coli, read-out: MIC compounds of the invention alone; for MIC of CAZ in combination with compound at 4 μg/mL: strain UFR61O, compound fixed at 4 μg/mL
[6] = system: K. oxytoca UFR21 (TEM-1, CTX-M-15, OXA-48); experiment: as above; conditions: for MIC: Klebsiella oxytoca, read-out: MIC compounds of the invention alone; for MIC of CAZ in combination with compound at 4 μg/mL: strain UFR21, compound fixed at 4 μg/mL
[7] = system: E. cloacae UFR38 (CTX-M-15, NDM-1); experiment: as above; conditions: for MIC: Enterobacter cloacae, read-out: MIC compounds of the invention alone; for MIC of CAZ in combination with compound at 4 μg/mL: strain UFR38, compound fixed at 4 μg/mL
SHV-1 = target: T4, SHV-1 (Klebsiella pneumoniae, UniProt P0AD64); experiment: β-lactamase inhibitory activity, nitrocefin hydrolysis; format: biochemical
T4 construct: made in house; host or cells: E. coli
T4 sequence (P0AD64 22-286): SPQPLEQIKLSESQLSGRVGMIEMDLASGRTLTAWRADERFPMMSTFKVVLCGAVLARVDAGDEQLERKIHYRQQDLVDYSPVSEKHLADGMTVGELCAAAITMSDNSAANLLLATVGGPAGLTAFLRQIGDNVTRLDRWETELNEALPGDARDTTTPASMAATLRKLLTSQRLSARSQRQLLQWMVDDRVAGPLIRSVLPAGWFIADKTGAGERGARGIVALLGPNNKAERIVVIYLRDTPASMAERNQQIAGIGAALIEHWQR
Experimental: as §1

[8] = system: K. pneumoniae UFR24 (TEM-1, SHV-2, SHV-11, OXA-1, OXA-48, OXA-47); experiment: MIC broth microdilution, alone and synergy with ceftazidime; conditions: for MIC of CAZ in combination with compound at 4 μg/mL: strain UFR24, compound fixed at 4 μg/mL
OXA-48 = target: T5, OXA-48 (Klebsiella pneumoniae, UniProt Q6XEC0); experiment: β-lactamase inhibitory activity, nitrocefin hydrolysis; format: biochemical
T5 construct: made in house; host or cells: E. coli
T5 sequence (Q6XEC0 23-265 limits assumed): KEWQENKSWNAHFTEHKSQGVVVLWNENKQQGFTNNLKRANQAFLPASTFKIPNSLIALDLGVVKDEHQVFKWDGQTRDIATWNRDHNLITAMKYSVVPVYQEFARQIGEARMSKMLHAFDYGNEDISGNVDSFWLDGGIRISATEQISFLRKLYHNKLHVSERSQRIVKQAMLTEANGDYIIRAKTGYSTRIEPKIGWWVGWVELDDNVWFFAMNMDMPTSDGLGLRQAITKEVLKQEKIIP
Experimental: as §1

[9] = system: P. aeruginosa CIP105250 (OXA-15); experiment: MIC broth microdilution, compounds alone; conditions: Pseudomonas aeruginosa, CIP105250, read-out: MIC compounds of the invention alone
[10] = system: K. pneumoniae 200047 (TEM-1, SHV-32, CTX-M-15, OXA-1); experiment: MIC broth microdilution, alone and synergy with ceftazidime; conditions: for MIC: Klebsiella pneumoniae, read-out: MIC compounds of the invention alone; for MIC of CAZ in combination with compound at 4 μg/mL: strain 200047, compound fixed at 4 μg/mL
[11] = system: E. coli UFR52 (TEM-1, SHV-12, IMP-8); experiment: as above; conditions: for MIC: Escherichia coli, read-out: MIC compounds of the invention alone; for MIC of CAZ in combination with compound at 4 μg/mL: strain UFR52, compound fixed at 4 μg/mL
[12] = system: E. coli 190317 (TEM-1, SHV-12, CTX-M-15, OXA-1); experiment: as above; conditions: for MIC of CAZ in combination with compound at 4 μg/mL: strain 190317, compound fixed at 4 μg/mL
[13] = system: K. pneumoniae 6299 (TEM-1, SHV-11, OXA-163); experiment: as above; conditions: for MIC: Klebsiella pneumoniae, read-out: MIC compounds of the invention alone; for MIC of CAZ in combination with compound at 4 μg/mL: strain 6299, compound fixed at 4 μg/mL
[14] = system: K. pneumoniae 160143 (TEM-1, SHV-1, CTX-M-15, KPC-2, OXA-1); experiment: as above; conditions: for MIC of CAZ in combination with compound at 4 μg/mL: strain 160143, compound fixed at 4 μg/mL
[15] = system: E. cloacae 260508 (TEM-1, CTX-M-15); experiment: as above; conditions: for MIC: Enterobacter cloacae, read-out: MIC compounds of the invention alone; for MIC of CAZ in combination with compound at 4 μg/mL: strain 260508, compound fixed at 4 μg/mL
[16] = Escherichia coli, read-out: MIC compounds of the invention alone
[17] = Klebsiella pneumoniae, read-out: MIC compounds of the invention alone

T1 sequence (P13661 26-276): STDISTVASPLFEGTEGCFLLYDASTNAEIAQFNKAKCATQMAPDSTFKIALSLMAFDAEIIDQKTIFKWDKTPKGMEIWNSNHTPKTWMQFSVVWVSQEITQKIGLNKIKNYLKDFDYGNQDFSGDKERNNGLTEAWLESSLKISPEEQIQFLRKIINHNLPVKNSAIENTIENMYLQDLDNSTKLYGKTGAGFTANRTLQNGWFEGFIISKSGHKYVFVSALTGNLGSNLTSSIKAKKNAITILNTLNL

Row | Structure (SMILES) | IC50 (OXA-1) | MIC (E. cloacae P99 (AmpC)) | MIC of CAZ in combination with compound at 4 μg/mL (E. cloacae P99 (AmpC)) | MIC [1] | MIC of CAZ in combination with compound at 4 μg/mL [1] | IC50 (P99 AmpC) | MIC of CAZ in combination with compound at 4 μg/mL [2] | MIC of CAZ in combination with compound at 4 μg/mL [3] | IC50 (KPC-2) | MIC (E. coli RGN238 (OXA-1)) | MIC of CAZ in combination with compound at 4 μg/mL (E. coli RGN238 (OXA-1)) | MIC [4] | MIC of CAZ in combination with compound at 4 μg/mL [4] | IC50 (AmpC P. aeruginosa) | MIC of CAZ in combination with compound at 4 μg/mL [5] | MIC [6] | MIC of CAZ in combination with compound at 4 μg/mL [6] | MIC [7] | MIC of CAZ in combination with compound at 4 μg/mL [7] | IC50 (SHV-1) | other results
1 | NCCn1c2c(sc1=O)C1CN(C2)C(=O)N1OS(=O)(=O)[O-].[Na+] (stereo not drawn) [Example 4, Sodium and 2,2,2-trifluoroacetate [5-(2-azaniumethyl)-4,9-dioxo-3-thia-5,8,10-triaza-tricyclo[6.2.1.0^2.6]undec-2(6)-en-10-yl] sulfate] | 0.46 µM | 0.5 mg/L | <0.25 mg/L | 16 mg/L | ≤0.25 mg/L | 0.14 µM | <0.25 mg/L | <0.25 mg/L | 0.0074 µM | 8 mg/L | <0.25 mg/L | 16 mg/L | 4 mg/L | 1.2 µM | <0.25 mg/L | 4 mg/L | <0.25 mg/L | 0.5 mg/L | <0.25 mg/L | 0.021 µM | MIC [3, 16]: 1 mg/L; MIC [5]: 4 mg/L; MIC of CAZ in combination with compound at 4 μg/mL [8]: ≤0.25 mg/L; IC50 (OXA-48): 0.0041 µM; MIC [9]: 8 mg/L; MIC [10]: 8 mg/L; MIC of CAZ in combination with compound at 4 μg/mL [10]: <0.25 mg/L; MIC [11]: 2 mg/L; MIC of CAZ in combination with compound at 4 μg/mL [11]: <0.25 mg/L; MIC [12, 16]: 1 mg/L; MIC of CAZ in combination with compound at 4 μg/mL [12]: <0.25 mg/L; MIC [13]: 32 mg/L; MIC of CAZ in combination with compound at 4 μg/mL [13]: ≤0.125 mg/L; MIC of CAZ in combination with compound at 4 μg/mL [14]: ≤0.25 mg/L; MIC [15]: 8 mg/L; MIC of CAZ in combination with compound at 4 μg/mL [15]: <0.25 mg/L
2 | COC(=O)Cn1c2c(sc1=O)C1CN(C2)C(=O)N1OS(=O)(=O)[O-].[Na+] (stereo not drawn) [Example 2, Sodium [5-(2-methoxy-2-oxo-ethyl)-4,9-dioxo-3-thia-5,8,10-triaza-tricyclo[6.2.1.0^2.6]undec-2(6)-en-10-yl] sulfate] | 0.038 µM | 16 mg/L | 4 mg/L | 4 mg/L | 0.25 mg/L | 0.016 µM | 32 mg/L | <0.25 mg/L | 0.0013 µM | 1 mg/L | <0.25 mg/L | > 32 mg/L | 16 mg/L | 0.22 µM | <0.25 mg/L | 8 mg/L | 16 mg/L | 8 mg/L | >128 mg/L | 0.0013 µM | MIC [2]: 32 mg/L; MIC [5]: 8 mg/L; MIC [8, 17]: 16 mg/L; MIC of CAZ in combination with compound at 4 μg/mL [8]: 4 mg/L; IC50 (OXA-48): 0.00067 µM; MIC [9]: > 32 mg/L; MIC of CAZ in combination with compound at 4 μg/mL [10]: <0.25 mg/L; MIC [11]: 8 mg/L; MIC of CAZ in combination with compound at 4 μg/mL [12]: <0.25 mg/L; MIC [13]: 8 mg/L; MIC of CAZ in combination with compound at 4 μg/mL [13]: 4 mg/L; MIC [14, 17]: 16 mg/L; MIC of CAZ in combination with compound at 4 μg/mL [14]: 8 mg/L; MIC [15]: 4 mg/L; MIC of CAZ in combination with compound at 4 μg/mL [15]: <0.25 mg/L
3 | Cn1c2c(sc1=O)C1CN(C2)C(=O)N1OS(=O)(=O)[O-].[Na+] (stereo not drawn) [Example 1, Sodium (5-methyl-4,9-dioxo-3-thia-5,8,10-triaza-tricyclo[6.2.1.0^2.6]undec-2(6)-en-10-yl) sulfate] | 0.063 µM | 8 mg/L | 0.5 mg/L | 8 mg/L | ≤0.25 mg/L | 0.048 µM | 64 mg/L | <0.25 mg/L | 0.0033 µM | 2 mg/L | <0.25 mg/L | > 128 mg/L | 4 mg/L | 0.19 µM | <0.25 mg/L | 8 mg/L | 2 mg/L | 8 mg/L | >128 mg/L | 0.012 µM | MIC [2]: 32 mg/L; MIC of CAZ in combination with compound at 4 μg/mL [8]: 4 mg/L; IC50 (OXA-48): 0.00089 µM; MIC [9]: > 32 mg/L; MIC [10]: 4 mg/L; MIC of CAZ in combination with compound at 4 μg/mL [10]: <0.25 mg/L; MIC [11]: 8 mg/L; MIC of CAZ in combination with compound at 4 μg/mL [11]: 0.5 mg/L; MIC of CAZ in combination with compound at 4 μg/mL [12]: ≤0.125 mg/L; MIC [13]: 16 mg/L; MIC of CAZ in combination with compound at 4 μg/mL [13]: 4 mg/L; MIC of CAZ in combination with compound at 4 μg/mL [14]: 0.5 mg/L; MIC [15]: 4 mg/L; MIC of CAZ in combination with compound at 4 μg/mL [15]: <0.25 mg/L
